A short description of data set [1]: Anti-limescale effect: calcium deposited as limescale on beaker walls. The following applies: for anti-limescale activity: conclusion in words; for % non limescale calcium / Calcium (part of the calcium responsible for the production of limescale): sample 11 Aquacid 24.0 mg/L, sample 14 metasilicate 20.0 mg/L. Here is the method: The aim of this test was to analyze the reaction of two additives (HEDP, metasilicate) in the presence of calcium.
The apparatus used was as follows: • new beakers with a volume of 400 milliliters (mL), a pH meter, an oven at 70° C., plastic film as well as normal laboratory apparatus (including class A glassware).
The operating protocol can be summarized as follows: • For each test formulation, 300 mL of equivalent swimming pool solution was prepared in the beakers provided. Each series of analyses was spread over two types of water: one with a HT=30° F. and one with a HT=15° F., in order to produce a spectrum of results covering a broad range of water types. The isocyanuric acid was added in the liquid form from a 1 grams per liter (g/L) solution. The additives (HEDP, metasilicate) for the formulations were added in the liquid form from 1 g/L solutions. The solutions were systematically buffered, either with sulfuric acid or with sodium hydroxide, in order to provide an initial pH in the range 6.8 to 7.4 (maximum efficiency range for chlorine). The solutions were left covered with film and were analyzed 3 days later so that the substances had reacted. At the time the analysis was carried out, the beakers were placed in an oven at 70° C. in order to evaporate the liquid phase. They were then rinsed with 100 ml of osmosis purified water in order to eliminate the soluble deposits and to leave only limescale deposits on their walls. The beakers were then refilled with osmosis purified water and 1 mL of 1N hydrochloric acid in order to dissolve the deposits: the measurements were carried out on these solutions.
The parameters below were monitored during the study: • The following were measured for the starting tap water: pH, HT (hydrptimetric titer), calcium, AT (alkalimetric titer), and CAT (complete alkalimetric titer).
The pH was monitored throughout the experiment. The calcium was measured at the end of the experiment.

Data set [2] is described as follows: Evolution of turbidity of swimming pool water samples (HACH turbidity meter). It is filed as physicochemical. The following applies: for Turbidity: Aquacid or metasilicate 40.0 mg/L. The text has this:
The aim of this test was to compare the effect of two compositions comprising sodium chloride and isocyanuric acid in disinfecting swimming pool water, one further comprising HEDP, and the other metasilicate in order to obtain a composition according to the invention.
In all of the examples below, the substances used were as follows: • salt; • isocyanuric acid; • Aquacid© (powder with 72% HEDP); • disodium metasilicate pentahydrate; • tap water; • commercial bleach (concentration of bleach: 2.15% of active chlorine); • 1N hydrochloric acid; • 35% sulfuric acid; • sodium hydroxide; and • acetone.
The following proportions were prepared to prepare the samples:
The measurement of the turbidity, in NTU (Nephelometric Turbidity Unit), was carried out with the aid of a HACH turbidity meter at the time intervals indicated in Table 3. The reaction conditions were selected in order to accelerate the appearance of any cloudiness.

Data set [3] can be described thus: Chlorine stabilizing effect under UV radiation (residual chlorine assay). It is filed as physicochemical. The following applies: for Residual chlorine: starting 3 mg/L Cl2, sample 11 Aquacid 24.0 mg/L, sample 14 metasilicate 20.0 mg/L. How it is done: In the presence of UV radiation, chlorine is destroyed photochemically. Isocyanuric acid can be used to reduce the destruction of chlorine under the effect of UV.
The following apparatus was used: 5 liter volume bucket, pH meter and normal laboratory apparatus (including class A glassware).
The operating procedure can be summarized as follows: • For each test formulation, two liters of solution was prepared in the buckets provided. The isocyanuric acid was added in the liquid form from a 1 g/L solution. The additives (metasilicates, HEDP) for the formulations were added in the liquid form from 1 g/L solutions. The dose of chlorine necessary for this study was provided by bleach in quantities that meant that solutions containing 3 mg/L of Cl2 were obtained. The solutions were systematically buffered, either with sulfuric acid or with sodium hydroxide, in order to provide a starting pH in the range 6.8 to 7.4 (zone of maximum efficiency for chlorine).
The following parameters were measured during the study: • for the starting water: pH, residual chlorine, HT, calcium, AT, CAT were measured; • throughout the experiment: pH, residual chlorine were monitored.
The chlorine measurements were carried out using quantitative chlorine assay. The measurements were carried out at times T+32 h10 and T+50 h10; the formulation of the compositions at time T are given in Table 4.

The nature of data set [4]: Anti-corrosion effect: steel plate immersed in 4 g/L saline solutions. As to conditions: for anti-corrosion activity: conclusion in words; for Fe loss/plate: results at 2 months, 4 g/L saline, sample 11 Aquacid 24.0 mg/L, sample 14 metasilicate 20.0 mg/L. How it is done: The principle of the method consists of completely immersing, in 4 g/L saline solutions with the compounds of the formulations, one steel plate per beaker, disposed vertically in order to have as little contact as possible with the glass. The formulations were those presented in section 4 in Example 3.
The efficacy of the formulations was evaluated as a function of the loss on ignition of the plate over a period of time, namely 2 months.
The following apparatus was used: • 400 mL beakers, pH-meter, steel plate with a surface area of 5.3 cm^2, plastic film as well as normal laboratory apparatus (including class A glassware). The operating protocol can be summarized as follows:
• stripping the plates with 1N hydrochloric acid using ultrasound in order to have plates of identical quality; • degreasing the plate with acetone in order to obtain identical active surfaces; • weighing the plates with milligram precision.
Swimming pool concentration solutions were prepared in advance in 2 liters (L) graduated flasks in order to provide mutually homogeneous media. The beakers were filled with 300 mL of the above-mentioned solutions. The beakers were covered with food quality film in order to prevent the medium from being polluted and in order to prevent too much evaporation.
The parameters measured were as follows: • on the tap water: pH, HT, AT, CAT, calcium.
In order to accelerate the phenomenon of corrosion, bubbling was carried out using an aquarium pump and outlet jets mounted on a rail. The bubbling time was 10 minutes. The solutions were aerated on odd days of the week. Since bubbling raises the pH, it was brought back to swimming pool in-service values, between 6.8 and 7.4. In order to maintain the salinity at 4 g/L and to overcome natural evaporation, tap water was added in order to keep the volume of water constant at 300 mL.
The following parameters were measured: • pH; • observations of the solutions and immersed plates once a day, taking photographs. These observations were made without handling either the beakers or the solutions.
The scraping spatula was treated with ultrasound then the plates were scraped using the spatula to recover the deposit. In order to terminate stripping of the plate and thus to collect all of the deposit, the plate and the spatula were treated with ultrasound in a water bath. The deposits were then filtered through 10 micrometer (pm) pores and 1.2 μm pores and then dried.
The following parameters were measured: • the plates were weighed to milligram precision; • an iron analysis was carried out on the plates; • a dissolved iron analysis was carried out on the solutions.
The analyses were carried out after 2 months.

Where [5] appears, read: first starting water, HT 27 °f, calcium 109 mg/L.
Where [6] appears, read: second starting water, HT 14.6 °f.
[7] abbreviates: second starting water, HT 14.6 °f, calcium 44.3 mg/L.
[8] abbreviates: time T, salt 4.0 g/L, iso acid 28.0 mg/L, chlorine 3.0 mg/L.

On to `O.O.O.O.O.O=[Si]([O-])[O-].[Na+].[Na+]` [Metasilicate, disodium metasilicate pentahydrate], for which the anti-limescale activity result in data set [1] is reported as “better anti-limescale activity than that of the HEDP”. For the same compound, the “calcium in the water before treatment transformed into limescale” value in data set [1] (first starting water, HT 27 °f) is given as 3.5%. In addition, the “% non limescale calcium” value in data set [1] (setting [5]) was 96.5%; in data set [1] (setting [7]), 94.1%. For the same compound, the “Calcium (part of the calcium responsible for the production of limescale)” value in data set [1] (setting [5]) stood at 3.8 mg/L; in data set [1] (setting [7]) it was 2.6 mg/L. The “calcium of the water before treatment transformed into limescale” value in data set [1] (setting [6]) is recorded as 5.9%. For the same compound, the Turbidity was 0.538 NTU in data set [2] (T + 94 h); 0.547 NTU in data set [2] (T + 118 h); 0.526 NTU in data set [2] (T + 142 h); 0.579 NTU in data set [2] (T + 168 h); 1.4 NTU in data set [2] (T + 192 h); 1.45 NTU in data set [2] (T + 216 h). Further, in data set [2] (setting [8]), the Turbidity is 0.274 NTU. For the same compound, the “cloudiness of the water detectable to the naked eye” value in data set [2] (same conditions as Table 3) is given as “does not induce any cloudiness”. The Loss of chlorine in data set [3] (T + 32 h 10) is 36.36%; in data set [3] (T + 50 h 10), 62.96%. Besides, the figures for the Residual chlorine in data set [3] (T + 32 h 10) and in data set [3] (T + 50 h 10) were 1.89 mg/L and 1.1 mg/L, respectively. Moreover, the “preservation of the residual chlorine concentration” value in data set [3] (conclusion in words) was “preserves the residual chlorine concentration better than HEDP”. The anti-corrosion activity entry in data set [4] is “anti-corrosion activity that is even better than that of HEDP”. Moreover, the Fe loss/plate in data set [4] is on record as 1.63%.

Take `CC(O)(P(=O)(O)O)P(=O)(O)O` [HEDP, 1-hydroxyethane-1,1-diphosphonic acid, reference compound]: the anti-limescale activity entry in data set [1] is reported as “have an anti-limescale activity”. In data set [1] (first starting water, HT 27 °f), the “calcium in the water before treatment transformed into limescale” value is given as 7.9%. Moreover, the “% non limescale calcium” value in data set [1] (setting [5]) came to 92.1%; in data set [1] (setting [7]) it was 91.4%. For the same compound, the entries for the “Calcium (part of the calcium responsible for the production of limescale)” value in data set [1] (setting [5]) and in data set [1] (setting [7]) were 8.6 mg/L and 3.8 mg/L, respectively. The “calcium of the water before treatment transformed into limescale” value in data set [1] (setting [6]) is reported as 8.6%. For the same compound, the Turbidity in data set [2] (T + 94 h) turned out to be 20.5 NTU; in data set [2] (T + 118 h) it was 22.5 NTU; in data set [2] (T + 142 h), 30.1 NTU; in data set [2] (T + 168 h) it was 34.2 NTU; in data set [2] (T + 192 h), 44.4 NTU; in data set [2] (T + 216 h), 56.8 NTU. In addition, the Turbidity in data set [2] (setting [8]) is 0.243 NTU. For the same compound, the Loss of chlorine in data set [3] (T + 32 h 10) and in data set [3] (T + 50 h 10) was 100.00% throughout. Also, the Residual chlorine in data set [3] (T + 32 h 10) and in data set [3] (T + 50 h 10) was 0 mg/L in each case. The anti-corrosion activity result in data set [4] is “have an anti-corrosion activity”. The compound also gave a Fe loss/plate in data set [4] of 2.80%.

Values taken from patent publication US20130270195A1, “MULTIFUNCTIONAL COMPOSITION FOR THE DISINFECTION TREATMENT OF WATER, AND USE OF THIS COMPOSITION” (Compagnie Des Salins Du Midi Et Des Salines De L'Est, priority 2010, published 2013).
